According to PubChem BioAssay AID2060338 (Molecular Pharmacology Branch, DTP, NCI, 2025):
Several values for one entry are separate records, joined by “and”; a condition that tells them apart may be missing. Identical values can stand only once.

Test system: 556581-035-R-J1-PDC spheroids with HUVEC/MSC, viability
Assay: Anticancer human tumor 556581-035-R-J1-PDC patient-derived ovarian carcinoma cell line growth inhibition [IpAb]
Conditions: for viability, T/C: stronger effect = lower value; for IC50: curve of compound
Excerpt: Combinatorial screen of targeted agents with ipatasertib and abemaciclib in multi-cell type tumor spheroids
A high-throughput screen of multi-cell type tumor spheroids was designed to identify active combinations of targeted small molecules and ipatasertib or abemaciclib. Complex spheroids include a stromal component modeled by human endothelial cells (HUVEC) and fibroblasts modeled by human mesenchymal stem cells (MSCs). The concentration ranges selected for each drug and investigational agent were based upon clinically achievable concentrations if the clinical Cmax of the agent was known.
Compounds. The drugs and investigational agents: ipatasertib (NSC767898), abemaciclib(NSC768073), selumetinib (NSC741078), trametinib (758246), adavosertib (NSC754352), everolimus (NSC733504), sapanisertib (NSC764658), vemurafenib (NSC761431), venetoclax (NSC766270), copanlisib (NSC809693), apelisib (NSC765974), palbociblib (NSC758247), vemurafenib (NSC761431), dabrafenib (NSC764134), ravoxertinib (NSC781343), BMS-387032 (NSC767048), sotorasib (NSC818433), talazoparib (NSC767125) and afursertib (NSC778305), were obtained from the National Cancer Institute (NCI) Developmental Therapeutics Program Chemical Repository. The FDA-approved anticancer drug set is available from the NCI Developmental Therapeutics Program. […] The stock solutions were prepared in dimethyl sulfoxide (DMSO, Sigma-Aldrich, St. Louis, MO, cat. D2650) at 800-fold the tested concentration and stored at -70 degrees C prior to their use. All drugs and investigational agents were tested over a range starting from a high concentration at or near the clinical Cmax and decreasing in half-log increments. If the clinical Cmax for an agent had not been determined, the highest concentration tested was 10 microM.
NCI60 Cell Culture. NCI60 cell lines were obtained from the NCI Developmental Therapeutics Program Tumor Repository. For each lot of cells, the Repository performed Applied Biosystems AmpFLSTR Identifiler testing with PCR amplification to confirm consistency with the published Identifier STR profile for each cell line. Cells were kept in continuous culture for no more than 20 passages. The optimal seeding densities for each of the cell lines at each time point assessed were determined prior to performing the concentration response studies. Briefly, the NCI60 human tumor lines were grown as monolayers in RPMI 1640 medium supplemented with 10% FBS and 2 mmol/L L-glutamine.
An additional 9 lines were from the NCI60 cell line panel including MDA-MB-231 breast carcinoma, MDA-MB-468 breast carcinoma, MCF7 breast carcinoma, Hs578T breast carcinoma, MALME-3M melanoma, SK-MEL-2 melanoma, SK-OV-3 ovarian carcinoma, DU-145 prostate carcinoma, PC-3 prostate carcinoma, all cell lines along with major genetic alterations are listed on Table 2. Pooled donor human umbilical vein endothelial cells (HUVEC, Lonza, cat. CC-2519) and human mesenchymal stem cells (hMSC, Lonza, cat. PT-2501) were purchased from Lonza (Walkersville, MD).
PDMR cell lines were grown in complete medium (DC medium): Dulbecco's modified Eagle's medium (DMEM)/F12 supplemented with 5% fetal bovine serum (FBS), 2 mM L-glutamine, 100 U/mL penicillin and 100 µg/ml streptomycin, 0.4 µg/ml hydrocortisone, 10 ng/ml epidermal growth factor (EGF) recombinant human protein, 24 µg/mL adenine, and 0.1 mg/mL primocin. During culture from frozen stock vials, PDMR cells were cultured in the same medium containing 10 µM Y-27632 (see Table 3). The PDCs were cultured in complete DMEM/F12 media without 10 microM Y-27632 dihydrochloride for at least two passages prior to the screen. The pooled donor HUVEC and hMSC were cultured in endothelial cell growth medium 2 (PromoCell, Heidelberg, Germany, cat. C-22011) and mesenchymal stem cell growth medium 2 (PromoCell, cat. C-28009), respectively. For all experiments, HUVEC and hMSC were used at passages </=5.
[…]
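Further: spheroids exposed to compounds for 7 days before readout.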

C=CC(=O)N1CCN(c2nc(=O)n(-c3c(C)ccnc3C(C)C)c3nc(-c4c(O)cccc4F)c(F)cc23)C(C)C1 (stereo unspecified)
viability, T/C (compound 0.0316 µM): 107% and 97.3%
viability, T/C (compound 0.1 µM): 97.5% and 113%
viability, T/C (compound 0.316 µM): 113% and 118%
viability, T/C (compound 1 µM): 106% and 105%
viability, T/C (compound 3.16 µM): 102% and 126%
viability, T/C (compound 10 µM): 31.9% and 31.5%
IC50: 7440 nM and 7680 nM

C=CCn1c(=O)c2cnc(Nc3ccc(N4CCN(C)CC4)cc3)nc2n1-c1cccc(C(C)(C)O)n1
viability, T/C (compound 0.0316 µM): 102% and 109%
viability, T/C (compound 0.1 µM): 72.1% and 83.2%
viability, T/C (compound 0.316 µM): 28.2% and 29.8%
viability, T/C (compound 1 µM): 39.7% and 41.9%
viability, T/C (compound 3.16 µM): 50.2% and 42%
viability, T/C (compound 10 µM): 36.3% and 35.7%
IC50: 214 nM and 230 nM

CC(=O)c1c(C)c2cnc(Nc3ccc(N4CCNCC4)cn3)nc2n(C2CCCC2)c1=O
viability, T/C (compound 0.000949 µM): 92.6% and 100%
viability, T/C (compound 0.003 µM): 125% and 99.8%
viability, T/C (compound 0.00949 µM): 91.4% and 106%
viability, T/C (compound 0.03 µM): 106% and 104%
viability, T/C (compound 0.0949 µM): 94.1% and 108%
viability, T/C (compound 0.3 µM): 99.7% and 95.6%
IC50: > 300 nM

CC(C)(C)c1cnc(CSc2cnc(NC(=O)C3CCNCC3)s2)o1
viability, T/C (compound 0.00949 µM): 104% and 105%
viability, T/C (compound 0.03 µM): 116% and 106%
viability, T/C (compound 0.0949 µM): 62.5% and 81%
viability, T/C (compound 0.3 µM): 2.65% and 4.27%
viability, T/C (compound 0.949 µM): 3.19% and 3.08%
viability, T/C (compound 3 µM): 4.63% and 2.13%
IC50: 121 nM and 151 nM

CC(C)NCC(C(=O)N1CCN(c2ncnc3c2C(C)CC3O)CC1)c1ccc(Cl)cc1 (stereo unspecified)
viability, T/C (compound 3.16 µM): 49% [middle of 13 runs]
viability, T/C (compound 10 µM): 45.5% [middle of 12 runs]

CC(C)n1nc(-c2ccc3oc(N)nc3c2)c2c(N)ncnc21
viability, T/C (compound 0.000316 µM): 99.2% and 88.1%
viability, T/C (compound 0.001 µM): 62.2% and 89.2%
viability, T/C (compound 0.00316 µM): 70.7% and 66.5%
viability, T/C (compound 0.01 µM): 45.7% and 44.2%
viability, T/C (compound 0.0316 µM): 34.7% and 34%
viability, T/C (compound 0.1 µM): 25.1% and 23.4%
IC50: 7.84 nM and 7.75 nM

CC1(C)CCC(CN2CCN(c3ccc(C(=O)NS(=O)(=O)c4ccc(NCC5CCOCC5)c([N+](=O)[O-])c4)c(Oc4cnc5[nH]ccc5c4)c3)CC2)=C(c2ccc(Cl)cc2)C1
viability, T/C (compound 0.0316 µM): 105% and 99.1%
viability, T/C (compound 0.1 µM): 103% and 102%
viability, T/C (compound 0.316 µM): 95.2% and 99%
viability, T/C (compound 1 µM): 94% and 108%
viability, T/C (compound 3.16 µM): 105% and 97.4%
viability, T/C (compound 10 µM): 27.4% and 15.8%
IC50: 6990 nM and 6180 nM

CCCS(=O)(=O)Nc1ccc(F)c(C(=O)c2c[nH]c3ncc(-c4ccc(Cl)cc4)cc23)c1F
viability, T/C (compound 0.0316 µM): 93.4% and 104%
viability, T/C (compound 0.1 µM): 103% and 99.8%
viability, T/C (compound 0.316 µM): 105% and 108%
viability, T/C (compound 1 µM): 92.9% and 98.8%
viability, T/C (compound 3.16 µM): 110% and 104%
viability, T/C (compound 10 µM): 75.7% and 78.5%
IC50: > 10000 nM

CCN1CCN(Cc2ccc(Nc3ncc(F)c(-c4cc(F)c5nc(C)n(C(C)C)c5c4)n3)nc2)CC1
viability, T/C (compound 1 µM): 52.7% [middle of 13 runs]

COc1c(OCCCN2CCOCC2)ccc2c3n(c(=NC(=O)c4cnc(N)nc4)nc12)CCN3
viability, T/C (compound 0.00316 µM): 72.5% and 103%
viability, T/C (compound 0.01 µM): 52.7% and 57.6%
viability, T/C (compound 0.0316 µM): 41.7% and 46.2%
viability, T/C (compound 0.1 µM): 32.3% and 38.2%
viability, T/C (compound 0.316 µM): 11% and 11.5%
viability, T/C (compound 1 µM): 2.47% and 3.86%
IC50: 16.3 nM and 24.4 nM

Cc1nc(NC(=O)N2CCCC2C(N)=O)sc1-c1ccnc(C(C)(C)C(F)(F)F)c1 (stereo unspecified)
viability, T/C (compound 0.0316 µM): 84.4% and 80.2%
viability, T/C (compound 0.1 µM): 73.3% and 72.6%
viability, T/C (compound 0.316 µM): 58.8% and 56.2%
viability, T/C (compound 1 µM): 40.9% and 42%
viability, T/C (compound 3.16 µM): 28.5% and 31.8%
viability, T/C (compound 10 µM): 9.2% and 11.3%
IC50: 594 nM and 608 nM
